Patent EP1202975B1, “SUBSTITUTED POLYCYCLIC ARYL AND HETEROARYL PYRAZINONES USEFUL FOR SELECTIVE INHIBITION OF THE COAGULATION CASCADE” (Pharmacia Corporation, priority 1999, dated 2000)
Where two headings read alike, the source gives them in different places.

How the values were obtained:
TF-VIIa = molecular target: T1, TF-VIIa (Homo sapiens, UniProt P08709); assay: TF-VIIa Assay; format: biochemical
T1 construct: 2nM recombinant human factor VIIa; purchased American Diagnostica, Greenwich CT; host or cells: soluble TF made in house in E. coli
T1 sequence (P08709 213-466 limits assumed): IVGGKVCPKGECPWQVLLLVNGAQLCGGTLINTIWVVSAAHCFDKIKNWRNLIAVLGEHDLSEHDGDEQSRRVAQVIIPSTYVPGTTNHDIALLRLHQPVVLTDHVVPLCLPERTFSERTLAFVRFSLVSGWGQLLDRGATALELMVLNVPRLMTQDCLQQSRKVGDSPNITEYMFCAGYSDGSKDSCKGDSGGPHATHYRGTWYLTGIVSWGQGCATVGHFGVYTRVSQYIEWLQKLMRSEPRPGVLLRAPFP
T1 sequence (P08709 61-212 limits assumed): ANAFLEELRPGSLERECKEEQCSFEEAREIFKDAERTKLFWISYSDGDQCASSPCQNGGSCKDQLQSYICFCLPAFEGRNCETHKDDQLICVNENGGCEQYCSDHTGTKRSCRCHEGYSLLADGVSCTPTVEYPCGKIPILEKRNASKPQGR
T1 sequence (P13726 33-251 partner limits assumed): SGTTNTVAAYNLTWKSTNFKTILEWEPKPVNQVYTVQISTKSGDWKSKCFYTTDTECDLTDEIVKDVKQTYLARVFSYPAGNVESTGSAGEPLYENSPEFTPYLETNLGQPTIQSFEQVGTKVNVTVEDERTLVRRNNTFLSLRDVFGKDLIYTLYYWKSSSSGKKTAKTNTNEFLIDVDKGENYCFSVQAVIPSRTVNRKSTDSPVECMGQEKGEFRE

Human factor Xa = Human factor Xa (Homo sapiens, UniProt P00742)
Human factor Xa, sequence (P00742 235-488 limits assumed): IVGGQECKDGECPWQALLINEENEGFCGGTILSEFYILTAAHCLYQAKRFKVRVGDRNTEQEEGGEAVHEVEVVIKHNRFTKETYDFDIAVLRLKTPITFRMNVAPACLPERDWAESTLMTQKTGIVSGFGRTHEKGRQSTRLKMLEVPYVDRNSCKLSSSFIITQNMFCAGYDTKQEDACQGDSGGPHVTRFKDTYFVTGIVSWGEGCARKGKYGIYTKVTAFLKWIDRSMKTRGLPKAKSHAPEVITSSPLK
Human factor Xa, sequence (P00742 41-179 limits assumed): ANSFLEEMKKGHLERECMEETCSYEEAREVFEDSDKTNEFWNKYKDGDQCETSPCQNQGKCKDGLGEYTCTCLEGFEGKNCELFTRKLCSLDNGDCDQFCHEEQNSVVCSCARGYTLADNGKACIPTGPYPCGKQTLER

[1] = read-out: IC50 or % Inhibition TF-VIIa (30 µM); cells given as a plain number (IC50)
[2] = read-out: IC50 or % Inhibition TF-VIIa (30 µM); cells without % sign: IC50
[3] = cells given as a plain number (IC50); read-out: IC50 or % Inhibition TF-VIIa (30 µM)

Structure (SMILES)	IC50 or % Inhibition Factor Xa (30 µM) (Human factor Xa)	IC50 (TF-VIIa; [1]) [nM]	other results
COc1ccc(-c2c(Cl)nc(NCCc3cccnc3)c(=O)n2CC(=O)NCc2ccc(C(=N)N)cc2)cc1 [1471-40]	11%	–	IC50 or % Inhibition TF-VIIa (30 µM) (TF-VIIa): 40%
N=C(N)c1ccc(CNC(=O)Cn2c(-c3ccccc3)c(Cl)nc(NCc3c(F)cccc3F)c2=O)cc1 [1512-43]	9%	11000	–
CC(C)Nc1nc(Cl)c(-c2cccc(N)c2)n(CC(=O)NCc2ccc(C(=N)N)cc2F)c1=O [1543-40]	10%	–	IC50 (TF-VIIa; [2]): 40 nM
C[C@@H](C(=O)NCc1ccc(C(=N)N)cc1)n1c(-c2ccccc2)c(Cl)nc(NC2CCC2)c1=O [1517-09]	0%	2600	–
CSCC(C(=O)NCc1ccc(C(=N)N)cc1)n1c(-c2ccccc2)c(Cl)nc(NCCc2ccccc2)c1=O (stereo not shown) [1517-16]	0%	3400	–
O=C(Cn1c(-c2ccc(-c3ccccc3)cc2)c(Cl)nc(NCCc2cccnc2)c1=O)NCCc1ccncc1 [Example E-0053]	–	–	% Inhibition TF-VIIa (100 µM) (TF-VIIa): 0%; % Inhibition Factor Xa (100 µM) (Human factor Xa): 0%
CCCNc1nc(Cl)c(-c2cccc(N)c2)n(CC(=O)NCc2ccc(C(=N)N)cc2F)c1=O [1543-35]	8%	–	IC50 (TF-VIIa; [2]): 70 nM
COc1ccc(-c2c(Cl)nc(NCCc3cccnc3)c(=O)n2CC(=O)NCCc2ccncc2)cc1 [Example E-0037]	–	–	% Inhibition TF-VIIa (100 µM) (TF-VIIa): 0%; % Inhibition Factor Xa (100 µM) (Human factor Xa): 0%
N=C(N)c1ccc(CNC(=O)Cn2c(-c3cccc(Cl)c3)c(Cl)nc(NCCc3ccccc3)c2=O)cc1 [1471-31]	17%	–	IC50 (TF-VIIa; [3]): 1980 nM
N=C(N)c1ccc(CNC(=O)Cn2c(-c3ccc4c(c3)OCO4)c(Cl)nc(NCCc3ccc(Cl)cc3)c2=O)cc1 [1471-42]	15%	10500	–
CCc1c(Cl)nc(NCCc2ccncc2)c(=O)n1CC(=O)NCc1ccc(C(=N)N)cc1 [1471-61]	0%	5000	–
CCCNc1nc(Cl)c(-c2ccccc2)n(CC(=O)NCc2ccc(C(=N)N)cc2)c1=O [1517-33]	0%	–	IC50 (TF-VIIa; [3]): 400 nM
CC(C)Nc1nc(Cl)c(-c2cccc([N+](=O)[O-])c2)n(CC(=O)NCc2ccc(C(N)=NO)cc2)c1=O [Example 61]	0%	–	IC50 or % Inhibition TF-VIIa (30 µM) (TF-VIIa): 1%
O=C(Cn1c(-c2ccc3c(c2)OCO3)c(Cl)nc(NCCc2ccccc2)c1=O)NCCc1ccncc1 [Example E-0042]	–	–	% Inhibition TF-VIIa (100 µM) (TF-VIIa): 0%; % Inhibition Factor Xa (100 µM) (Human factor Xa): 0%
N=C(N)c1ccc(CNC(=O)Cn2c(-c3ccccc3)c(Cl)nc(NCc3cc(F)cc(C(F)(F)F)c3)c2=O)cc1 [1512-29]	4%	–	IC50 or % Inhibition TF-VIIa (30 µM) (TF-VIIa): 47%
N=C(N)c1ccc(CNC(=O)Cn2c(-c3ccccc3)c(Cl)nc(NCCc3cccnc3)c2=O)cc1 [1471-16]	23%	820	–
Cc1c(Cl)nc(NCCc2ccc(Cl)cc2)c(=O)n1CC(=O)NCCc1ccncc1 [Example E-0004]	–	–	% Inhibition TF-VIIa (100 µM) (TF-VIIa): 0%; % Inhibition Factor Xa (100 µM) (Human factor Xa): 0%
O=C(Cn1c(-c2ccccc2)c(Cl)nc(NCCc2ccccc2)c1=O)NCCc1ccncc1 [Example E-0010]	–	–	% Inhibition TF-VIIa (100 µM) (TF-VIIa): 0%; % Inhibition Factor Xa (100 µM) (Human factor Xa): 0%
N=C(N)c1ccc(CNC(=O)Cn2c(-c3ccccc3)c(Cl)nc(NCc3cc(Cl)ccc3Cl)c2=O)cc1 [1512-35]	4%	22500	–
N=C(N)c1ccc(CNC(=O)Cn2c(-c3ccccc3)c(Cl)nc(NCCc3ccccn3)c2=O)cc1 [1512-47]	13%	3500	–
COc1ccc(-c2c(Cl)nc(NCc3ccccc3)c(=O)n2CC(=O)NCc2ccc(C(=N)N)cc2)cc1 [1471-33]	22%	–	IC50 or % Inhibition TF-VIIa (30 µM) (TF-VIIa): 31%
O=C(Cn1c(-c2ccc3c(c2)OCO3)c(Cl)nc(NCCc2cccc(Cl)c2)c1=O)NCCc1ccncc1 [Example E-0043]	–	–	% Inhibition TF-VIIa (100 µM) (TF-VIIa): 0%; % Inhibition Factor Xa (100 µM) (Human factor Xa): 0%
C[C@@H](C(=O)NCc1ccc(C(=N)N)cc1)n1c(-c2ccccc2)c(Cl)nc(NCCc2ccccc2)c1=O [1517-15]	0%	3100	–
N=C(N)c1ccc(CNC(=O)Cn2c(-c3c(Cl)cccc3Cl)c(Cl)nc(NCc3ccccc3)c2=O)cc1 [1517-06]	0%	2500	–

Structure (SMILES)	IC50 or % Inhibition Factor Xa (30 µM) (Human factor Xa)	IC50 (TF-VIIa; [1]) [nM]	other results
O=C(Cn1c(-c2ccccc2)c(Cl)nc(NCc2ccncc2)c1=O)NCCc1ccncc1 [Example E-0016]	–	–	% Inhibition TF-VIIa (100 µM) (TF-VIIa): 0%; % Inhibition Factor Xa (100 µM) (Human factor Xa): 0%
Cc1c(Cl)nc(NCCc2cccc(Cl)c2)c(=O)n1CC(=O)NCc1ccc(C(=N)N)cc1 [1471-6]	14%	2850	–
N=C(N)c1ccc(CNC(=O)Cn2c(-c3cccc(N)c3)c(Cl)nc(NCCCO)c2=O)cc1 [1543-13]	12%	–	IC50 (TF-VIIa; cells without % sign: IC50; read-out: IC50 or % Inhibition TF-VIIa (30 µM)): 90 nM
N=C(N)c1ccc(CNC(=O)Cn2c(Cc3ccccc3)c(Cl)nc(NCCc3ccccc3)c2=O)cc1 [Example 20]	6%@30	–	IC50 or % Inhibition TF-VIIa (30 µM) (TF-VIIa): 41%@30
N=C(N)c1ccc(CNC(=O)Cn2c(-c3cccc(N)c3)c(Cl)nc(NCCCn3ccnc3)c2=O)cc1 [1543-07]	19%	–	IC50 (TF-VIIa; [2]): 210 nM
N=C(N)c1ccc(CNC(=O)Cn2c(-c3ccccc3O)c(Cl)nc(NC3CCC3)c2=O)cc1 [Example 66]	0%	–	IC50 (TF-VIIa; [3]): 340 nM
N=C(N)c1ccc(CNC(=O)Cn2c(-c3ccccc3)c(Cl)nc(NCCN3CCOCC3)c2=O)cc1 [1471-12]	9%	–	IC50 (TF-VIIa; [3]): 7970 nM
CCCCCNc1nc(Cl)c(-c2ccccc2)n(CC(=O)NCc2ccc(C(=N)N)cc2)c1=O [1517-48]	0%	1200	–
Cc1c(Cl)nc(NCCc2ccncc2)c(=O)n1CC(=O)NCCc1ccncc1 [Example E-0006]	–	–	% Inhibition TF-VIIa (100 µM) (TF-VIIa): 2%; % Inhibition Factor Xa (100 µM) (Human factor Xa): 0%
CC(C)Nc1nc(Cl)c(-c2cccc(C(=O)O)c2)n(CC(=O)NCc2ccc(C(=N)N)cc2)c1=O [Example 65]	12%	–	IC50 (TF-VIIa; [3]): 360 nM
CCc1c(Cl)nc(NCCN2CCOCC2)c(=O)n1CC(=O)NCc1ccc(C(=N)N)cc1 [1471-60]	0%	13000	–
N=C(N)c1ccc(CNC(=O)Cn2c(-c3ccc(-c4ccccc4)cc3)c(Cl)nc(NCCc3cccnc3)c2=O)cc1 [1471-72]	22%	–	IC50 or % Inhibition TF-VIIa (30 µM) (TF-VIIa): 15%
N=C(N)c1ccc(CNC(=O)Cn2c(-c3ccc(Cl)cc3)c(Cl)nc(NCCc3cccc(Cl)c3)c2=O)cc1 [1471-22]	28%	14600	–
N=C(N)c1ccc(CNC(=O)Cn2c(-c3cccc(N)c3)c(Cl)nc(NCCCCN3CCCC3)c2=O)cc1 [1543-21]	27%	–	IC50 (TF-VIIa; [2]): 290 nM
N=C(N)c1ccc(CNC(=O)Cn2c(-c3ccccc3)c(Cl)nc(NCC3COc4ccccc4O3)c2=O)cc1 (stereo not shown) [1512-01]	4%	18000	–
CC(CNc1nc(Cl)c(-c2cccc(N)c2)n(CC(=O)NCc2ccc(C(=N)N)cc2)c1=O)N(C)C (stereo not shown) [1543-19]	11%	–	IC50 (TF-VIIa; [2]): 220 nM
N=C(N)c1ccc(CNC(=O)Cn2c(-c3c(Cl)cccc3Cl)c(Cl)nc(NCCc3ccccc3)c2=O)cc1 [1517-18]	0%	1300	–
COc1ccc(-c2c(Cl)nc(NCCN3CCOCC3)c(=O)n2CC(=O)NCCc2ccncc2)cc1 [Example E-0039]	–	–	% Inhibition TF-VIIa (100 µM) (TF-VIIa): 0%; % Inhibition Factor Xa (100 µM) (Human factor Xa): 1%
CC(=O)Nc1cccc(-c2c(Cl)nc(NC(C)C)c(=O)n2CC(=O)NCCc2ccc(C(=N)N)cc2)c1 [Example 68]	6%	–	IC50 or % Inhibition TF-VIIa (30 µM) (TF-VIIa): 32%
O=C(Cn1c(-c2ccc3c(c2)OCO3)c(Cl)nc(NCc2ccccc2)c1=O)NCCc1ccncc1 [Example E-0041]	–	–	% Inhibition TF-VIIa (100 µM) (TF-VIIa): 0%; % Inhibition Factor Xa (100 µM) (Human factor Xa): 0%
N=C(N)c1ccc(CNC(=O)Cn2c(-c3ccccc3)c(Cl)nc(NCCCN3CCCC3=O)c2=O)cc1 [1507-19]	4%	12900	–
CN(C)CCNc1nc(Cl)c(-c2ccccc2)n(CC(=O)NCc2ccc(C(=N)N)cc2)c1=O [1512-15]	6%	–	IC50 (TF-VIIa; [3]): 20900 nM
N=C(N)c1ccc(CNC(=O)Cn2c(-c3ccccc3)c(Cl)nc(NCc3ccccc3)c2=O)cc1 [1471-9]	29%	–	IC50 (TF-VIIa; [3]): 770 nM
